Reference: US4866206A, “2-Halomethyl derivatives of 2-amino acids” (Merrell Dow France et Cie, priority 1988, dated 1989)
pKi: −log10 of the molar value. Like-named read-outs stand apart in the source and are kept apart here.

Key:
[1] = target: T1, rat liver ornithine decarboxylase (Rattus norvegicus, UniProt P09057); assay: time-dependent inhibition of rat liver ODC (in vitro); format: biochemical
T1 construct: rat liver ornithine decarboxylase in vitro; from tissue; host or cells: rat liver
T1 sequence (P09057 1-461): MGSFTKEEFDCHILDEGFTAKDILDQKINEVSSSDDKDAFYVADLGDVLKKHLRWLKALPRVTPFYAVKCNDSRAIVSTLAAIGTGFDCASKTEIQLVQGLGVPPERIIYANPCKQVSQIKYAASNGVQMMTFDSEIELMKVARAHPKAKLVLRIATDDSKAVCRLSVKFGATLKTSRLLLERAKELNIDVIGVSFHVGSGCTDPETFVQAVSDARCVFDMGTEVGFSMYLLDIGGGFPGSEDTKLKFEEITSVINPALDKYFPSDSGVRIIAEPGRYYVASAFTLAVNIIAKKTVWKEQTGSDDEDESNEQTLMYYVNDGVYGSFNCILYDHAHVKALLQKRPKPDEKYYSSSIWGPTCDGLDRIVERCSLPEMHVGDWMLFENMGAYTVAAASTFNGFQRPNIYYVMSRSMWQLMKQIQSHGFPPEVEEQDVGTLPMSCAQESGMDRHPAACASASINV

ornithine decarboxylase = target: T2, ornithine decarboxylase (Rattus norvegicus, UniProt P09057); assay: ODC activity remaining in rat tissues after a single dose (in vivo); parameters: species or system rats; settings: single oral dose 200 mg/kg
T2 construct: from tissue; host or cells: rat ventral prostate and thymus
T2 sequence (P09057 1-461): T1 sequence (P09057 1-461)
Description: The ODC inhibitory activity of a compound can be determined in vitro by the method described by B. Metcalf et al., J. Am. Chem. Soc., 100, 2551 (1978) and in vivo by the method of C. Danzin, Life Sciences, 24, 519 (1979).
2-Fluoromethyl-2,5-diaminopentanoic acid and 2-fluoromethyl-2,6-diaminohexanoic acid were tested for inhibition of ornithine decarboxylase in rats according to the procedure of C. Danzin et al., Life Sciences, 24, 519 (1979).

[2] = concentration of compound which gives half-maximal rate of inhibition, time-dependent inhibition
[3] = half-life of inhibition at 10 μM inhibitor
[4] = half-life of inhibition at infinite concentration of inhibitor

Row | SMILES | T1/2 [1] | t1/2 at 10 μM [1] [min] | K I [1, 2] | t1/2 at 10 μM [1, 3] [min] | T1/2 [1, 4] | pKi [1, 2] | ODC Activity remaining in ventral prostate (ornithine decarboxylase; 3 h) [% Control] | ODC Activity remaining in ventral prostate (ornithine decarboxylase; 6 h) [% Control] | ODC Activity remaining in ventral prostate (ornithine decarboxylase; 12 h) [% Control]
1 | NCCCCC(N)(CCl)C(=O)O (centres unmarked) [MCML, 2-chloromethyl-2,6-diaminohexanoic acid] | no apparent saturation | 62 | – | – | – | – | – | – | –
2 | NCCCC(N)(CCl)C(=O)O (centres unmarked) [MCMO, 2-chloromethyl-2,5-diaminopentanoic acid] | – | – | no apparent saturation | 22 | no apparent saturation | – | – | – | –
3 | NCCCCC(N)(CF)C(=O)O (centres unmarked) [MFML, 2-fluoromethyl-2,6-diaminohexanoic acid] | – | – | – | 88 | 2.0 min | 3.37 | 66 ± 6 | 44 ± 10 | 74 ± 7
